Values of other authors, collected in patent US8551985B2, “Carbinol derivatives having heterocyclic linker” (Kowa Company, Ltd., priority 2009, dated 2013).

Biological target: T1, LXRβ (Homo sapiens, UniProt P55055)
T1 sequence (P55055 1-460): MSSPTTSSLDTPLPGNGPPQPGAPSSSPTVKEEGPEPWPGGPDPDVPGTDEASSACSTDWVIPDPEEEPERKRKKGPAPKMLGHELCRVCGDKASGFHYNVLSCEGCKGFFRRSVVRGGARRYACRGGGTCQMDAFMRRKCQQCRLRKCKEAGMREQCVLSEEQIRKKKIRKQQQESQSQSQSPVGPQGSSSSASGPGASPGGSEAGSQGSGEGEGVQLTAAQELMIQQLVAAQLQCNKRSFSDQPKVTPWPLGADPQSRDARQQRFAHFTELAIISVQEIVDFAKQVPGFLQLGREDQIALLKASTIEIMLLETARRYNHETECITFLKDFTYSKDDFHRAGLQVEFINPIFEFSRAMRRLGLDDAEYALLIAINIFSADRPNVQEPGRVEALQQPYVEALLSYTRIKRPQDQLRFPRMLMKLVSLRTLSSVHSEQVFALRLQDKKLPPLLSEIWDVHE

O=C(O)Cc1ccc(COc2cccc(-c3c(Cc4ccccc4)cnc4c(C(F)(F)F)cccc34)c2)cc1 [WAY-254011]
LXRβ-selective binding affinity (α/β ratio): 1 to 5
